Test results reported in patent US7026339B2, “Inhibitors of HCV NS5B polymerase” (priority 2003, dated 2006).
pIC50: −log10 of the molar value.

These compounds were tested on HuH-7 replicon cells 5–15 and 9–13 (HCV replication) (assay: Inhibition of viral replication in HuH-7 replicon cells (HCV RNA / GAPDH RNA by multiplex RT-PCR)). Conditions: Hepatitis C virus, 72 h; inhibiting 50% of replication; HuH-7 replicon cells, 3 days; read-out: IC50.
Format: cell-based
Description: Compounds were evaluated for inhibition of viral replication according to published procedures (Bartenschlager, R., et. al., Science, 1999, 285, 110) with modifications as follows.
HuH-7 replicon cells 5–15 and 9–13 were cultured in Dulbecco's minimal essential medium (DMEM) containing high glucose and supplemented with 10% fetal bovine serum (FBS), L-glutamine (2 mM), non-essential amino acids (1×), Penicillin (100 IU/mL)/Streptomycin (100 μg/mL) and G418 (Geneticin, 750 μg/mL). Unless otherwise specified, all media components were obtained from Invitrogen. Replicon cell line stocks were maintained as sub-confluent monolayers by passaging every Monday (1:6 split) and Thursday (1:10 split) and incubated at 37° C. with 5% CO2. Tissue culture plates (96-well white clear bottom plates, Corning #3610) were seeded at 7×10^3 cells/well and incubated for 24 hours prior to addition of the compounds.
Compounds in dry powder form were diluted in DMSO (30 mM stock). Serial dilutions of each Compound in DMSO (10 mM–0.1 mM) were performed in a 96-well polypropylene plate using a microtiter format. Culture media (200 μl) was added to the corresponding wells of a sterile 96-well round bottom plate. Diluted compound (2 μl) was added to the corresponding wells of the medial plate (final compound concentrations: 100 μM–1 μM). Culture media was removed from the corresponding wells of the 96-well plate containing the replicon cells and 150 μl diluted compound added. Media containing 1% DMSO and a serially diluted IFN were included on each plate. The cultures were incubated at 37° C. with 5% CO2 for 3 days. Cultures were observed visually for cytotoxicity or compound precipitation prior to RNA extraction described below.
Total cellular RNA was extracted by spin column technology (RNeasy 96, Qiagen) using the vacuum methodology according to the manufacturer's protocol. In brief, culture media was removed and 100 μl RLT lysis buffer containing 0.14M β-mercaptoethanol (β-ME) was added to each well. The plate was kept flat on the laboratory bench and shaken vigorously to lyse the cells. An equal volume of 70% ETOH was mixed with the lysate and added to the corresponding columns of the RNeasy 96-well plate. Vacuum was applied to draw the lysate through the filters. After ventilating the plate, buffer RW1 (1 mL) was drawn through each column. The waste tray was emptied and the filters washed twice with buffer RPE (1 mL/wash). After ventilating the tray, the RNeasy plate was removed and the bottom of the plate struck several times on a stack of paper towels to remove excess wash buffer. The waste tray was removed from the vacuum apparatus and the RNeasy 96-well plate dried by applying vacuum for 10 minutes. Total cellular RNA was eluted from the columns with two washes of 60 μl RNase-free water.
Relative quantitative multiplex RT-PCR was performed using TaqMan (TM) EZ RT Core Reagent kit (Perkin Elmer) according to the manufacturer's protocol (PE Applied Biosystems User Bulletin #2). Primer 061 (NT 61–82) and 139 (NT 139–158) amplifying a short region in the 5′ untranslated region of the HCV genome were utilized at 300 nM final concentrations. Probe #3 (NT 97–119) labeled with FAM reporter dye was utilized at 200 nM final concentration. Pre-developed human GAPDH primers and probe labeled with VIC reporter dye were obtained from PE Applied Biosystems (# 4310884E) and used according to the manufacturer's protocol. TM RT-PCR master mix was prepared containing the above primers/probe for both target RNA. Total cellular RNA (2 μl) was added to the reaction tubes of a 96-well optical plate that corresponded to the wells of the replicon culture plate. The final volume of each reaction was 50 μl. A standard curve was prepared from ten-fold serial dilutions of total cellular RNA extracated from 10^6 replicon cells and eluted in 30 μl RNase-free water. […]

| Compound | pIC50 |
| --- | --- |
| O=C(Cc1ccccc1Br)N/N=C/c1ccccc1OS(=O)(=O)c1ccc(C(F)(F)F)cc1 [Compound 40, 2-((E)-{2-[2-(2-bromophenyl)acetyl]hydrazono}methyl)-phenyl 4-(trifluoromethyl)benzenesulfonate] | > 5.30 |
| O=C(Cc1ccccc1F)N/N=C/c1ccccc1OS(=O)(=O)c1ccc(C(F)(F)F)cc1 [Compound 41, 2-((E)-{2-[2-(2-fluorophenyl)acetyl]hydrazono}methyl)-phenyl 4-(trifluoromethyl)benzenesulfonate] | > 5.30 |
| Cc1ccccc1CC(=O)N/N=C/c1ccccc1OS(=O)(=O)c1ccc(C(F)(F)F)cc1 [Compound 42, 2-((E)-{-[2-(2-methylphenyl)acetyl]hydrazono}methyl)-phenyl 4-(trifluoromethyl)benzenesulfonate] | > 5.30 |
| O=C(Cc1ccc2c(c1)OCO2)N/N=C/c1ccccc1OS(=O)(=O)c1ccc(C(F)(F)F)cc1 [Compound 43, 2-((E)-{2-[2-(1,3-benzodioxol-5-yl)acetyl]hydrazono}methyl)phenyl 4-(trifluoromethyl)benzenesulfonate] | > 5.30 |
| COc1ccc(CC(=O)N/N=C/c2ccccc2OS(=O)(=O)c2ccc(C(F)(F)F)cc2)cc1 [Compound 44, 2-((E)-{2-[2-(4-methoxyphenyl)acetyl]hydrazono}methyl)-phenyl 4-(trifluoromethyl)benzenesulfonate] | > 5.30 |
| O=C(CC1CCCCC1)N/N=C/c1ccccc1OS(=O)(=O)c1ccc(C(F)(F)F)cc1 [Compound 45, 2-{(E)-[2-(2-cyclohexylacetyl)hydrazono]methyl}phenyl4-(trifluoromethyl)benzenesulfonate] | > 5.30 |
| O=C(CCCc1ccccc1)N/N=C/c1ccccc1OS(=O)(=O)c1ccc(C(F)(F)F)cc1 [Compound 46, 2-{(E)-[2-(4-phenylbutanoyl)hydrazono]methyl}phenyl4-(trifluoromethyl)benzenesulfonate] | 4.30 to 5.30 |
| O=C(CCCCc1ccccc1)N/N=C/c1ccccc1OS(=O)(=O)c1ccc(C(F)(F)F)cc1 [Compound 47, 2-{(E)-[2-(5-phenylpentanoyl)hydrazono]methyl}phenyl4-(trifluoromethyl)benzenesulfonate] | 4.30 to 5.30 |
| O=C(Cc1cccc(F)c1)N/N=C/c1ccccc1OS(=O)(=O)c1ccc(C(F)(F)F)cc1 [Compound 48, 2-((E)-{2-[2-(3-fluorophenyl)acetyl]hydrazono}methyl)-phenyl 4-(trifluoromethyl)benzenesulfonate] | > 5.30 |
| COc1ccc2[nH]cc(CC(=O)N/N=C/c3ccccc3OS(=O)(=O)c3ccc(C(F)(F)F)cc3)c2c1 [Compound 49, 2-((E)-{2-[2-(5-methoxy-1H-indol-3-yl)acetyl]hydrazono}methyl)phenyl 4-(trifluoromethyl)benzenesulfonate] | 4.30 to 5.30 |
| COc1cc(CC(=O)N/N=C/c2ccccc2OS(=O)(=O)c2ccc(C(F)(F)F)cc2)cc(OC)c1 [Compound 50, 2-((E)-{2-[2-(3,5-dimethoxyphenyl)acetyl]hydrazono}methyl)-phenyl 4-(trifluoromethyl)benzenesulfonate] | > 5.30 |
| COc1ccc(CC(=O)N/N=C/c2ccccc2OS(=O)(=O)c2ccc(C(F)(F)F)cc2)c(OC)c1 [Compound 51, 2-((E)-{2-[2-(2,4-dimethoxyphenyl)acetyl]hydrazono}methyl)-phenyl 4-(trifluoromethyl)benzenesulfonate] | > 5.30 |
| O=C(Cc1ccc(Br)cc1)N/N=C/c1ccccc1OS(=O)(=O)c1ccc(C(F)(F)F)cc1 [Compound 52, 2-((E)-{2-[2-(4-bromophenyl)acetyl]hydrazono}methyl)-phenyl 4-(trifluoromethyl)benzenesulfonate] | > 5.30 |
| COc1cccc(OCC(=O)N/N=C/c2ccccc2OS(=O)(=O)c2ccc(C(F)(F)F)cc2)c1 [Compound 53, 2-((E)-{2-[2-(3-methoxyphenoxy)acetyl]hydrazono}methyl)-phenyl 4-(trifluoromethyl)benzenesulfonate] | > 5.30 |
| O=C(CCc1ccco1)N/N=C/c1ccccc1OS(=O)(=O)c1ccc(C(F)(F)F)cc1 [Compound 54, 2-((E)-{2-[3-(2-furyl)propanoyl]hydrazono}methyl)phenyl4-(trifluoromethyl)benzenesulfonate] | > 5.30 |
| COc1cc(CC(=O)N/N=C/c2ccccc2OS(=O)(=O)c2ccc(C(F)(F)F)cc2)cc(OC)c1OC [Compound 55, 2-((E)-{2-[2-(3,4,5-trimethoxyphenyl)acetyl]hydrazono}methyl)-phenyl 4-(trifluoromethyl)benzenesulfonate] | < 4.30 |
| O=C(Cc1ccccc1OCc1ccccc1)N/N=C/c1ccccc1OS(=O)(=O)c1ccc(C(F)(F)F)cc1 [Compound 56, 2-[(E)-(2-{2-[2-(benzyloxy)phenyl]acetyl}hydrazono)methyl]-phenyl 4-(trifluoromethyl)benzenesulfonate] | > 5.30 |
| O=C(Cc1ccccc1Oc1ccccc1)N/N=C/c1ccccc1OS(=O)(=O)c1ccc(C(F)(F)F)cc1 [Compound 57, 2-((E)-{2-[2-(2-phenoxyphenyl)acetyl]hydrazono}methyl)-phenyl 4-(trifluoromethyl)benzenesulfonate] | > 5.30 |
| COc1cccc(CCC(=O)N/N=C/c2ccccc2OS(=O)(=O)c2ccc(C(F)(F)F)cc2)c1 [Compound 58, 2-((E)-{2-[3-(3-methoxyphenyl)propanoyl]hydrazono}-methyl)phenyl 4-(trifluoromethyl)benzenesulfonate] | < 4.30 |
| O=C(CSc1ccccc1)N/N=C/c1ccccc1OS(=O)(=O)c1ccc(C(F)(F)F)cc1 [Compound 59, 2-((E)-{2-[2-(phenylthio)acetyl]hydrazono}methyl)-phenyl 4-(trifluoromethyl)benzenesulfonate] | > 5.30 |
| O=C(Cc1ccc(I)cc1)N/N=C/c1ccccc1OS(=O)(=O)c1ccc(C(F)(F)F)cc1 [Compound 60, 2-((E)-{2-[2-(4-iodophenyl)acetyl]hydrazono}methyl)-phenyl 4-(trifluoromethyl)benzenesulfonate] | > 5.30 |
| O=C(Cc1cncc(Br)c1)N/N=C/c1ccccc1OS(=O)(=O)c1ccc(C(F)(F)F)cc1 [Compound 61, 2-((E)-{2-[2-(5-bromopyridin-3-yl)acetyl]hydrazono}methyl)phenyl 4-(trifluoromethyl)benzenesulfonate] | > 5.30 |
| O=C(Cc1cccc(Br)c1)N/N=C/c1ccccc1OS(=O)(=O)c1ccc(C(F)(F)F)cc1 [Compound 62, 2-((E)-{2-[2-(3-bromophenyl)acetyl]hydrazono}methyl)-phenyl 4-(trifluoromethyl)benzenesulfonate] | > 5.30 |
| O=C(Cc1ccc(Cl)nc1)N/N=C/c1ccccc1OS(=O)(=O)c1ccc(C(F)(F)F)cc1 [Compound 63, 2-((E)-{2-[2-(6-chloropyridin-3-yl)acetyl]hydrazono}methyl)phenyl 4-(trifluoromethyl)benzenesulfonate] | > 5.30 |
| O=C(COc1ccccc1)N/N=C/c1ccccc1OS(=O)(=O)c1ccc(C(F)(F)F)cc1 [Compound 64, 2-{(E)-[2-(2-phenoxyacetyl)hydrazono]methyl}phenyl4-(trifluoromethyl)benzenesulfonate] | > 5.30 |
| O=C(Cc1cccc2occc12)N/N=C/c1ccccc1OS(=O)(=O)c1ccc(C(F)(F)F)cc1 [Compound 65, 2-((E)-{2-[2-(1-benzofuran-4-yl)acetyl]hydrazono}methyl)phenyl 4-(trifluoromethyl)benzenesulfonate] | 4.30 to 5.30 |
| COc1cc(OC)c(CC(=O)N/N=C/c2ccccc2OS(=O)(=O)c2ccc(C(F)(F)F)cc2)c(OC)c1 [Compound 66, 2-((E)-{2-[2-(2,4,6-trimethoxyphenyl)acetyl]hydrazono}methyl)-phenyl 4-(trifluoromethyl)benzenesulfonate] | 4.30 to 5.30 |
